Measured values published in PubChem BioAssay (NCI).
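Exposure lasted 48 hours, with cells grown in 96-well plates and compounds tested at five concentrations. Abbreviation: GI50, concentration required for 50% inhibition of growth. TGI denotes the concentration required for complete inhibition of growth.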

How the values were obtained:
Test in all cases: NCI anticancer screen, dose series, 48 h
[1] = test system: HL-60(TB) leukemia
[2] = test system: RXF 393 renal
[3] = test system: M14 melanoma
[4] = test system: CAKI-1 renal
[5] = test system: OVCAR-8 ovarian
[6] = test system: LOX IMVI melanoma
[7] = test system: A549 NSCLC
[8] = test system: MCF7 breast
[9] = test system: SF-539 CNS
[10] = test system: CCRF-CEM leukemia
[11] = test system: TK-10 renal
[12] = test system: DU-145 prostate
[13] = test system: RPMI-8226 leukemia
[14] = test system: HCT-15 colon
[15] = test system: OVCAR-4 ovarian
[16] = test system: HOP-92 NSCLC
[17] = test system: T-47D breast
[18] = test system: HCC-2998 colon
[19] = test system: UACC-257 melanoma
[20] = test system: SN12C renal
[21] = test system: NCI-H460 lung
[22] = test system: HS 578T breast
[23] = test system: MDA-MB-231 breast
[24] = test system: EKVX NSCLC
[25] = test system: HT29 colon
[26] = test system: SF-295 CNS
[27] = test system: COLO 205 colon
[28] = test system: BT-549 breast
[29] = test system: IGROV1 ovarian
[30] = test system: SR leukemia
[31] = test system: NCI-H522 lung
[32] = test system: OVCAR-5 ovarian
[33] = test system: A498 renal
[34] = test system: UACC-62 melanoma
[35] = test system: MDA-MB-435
[36] = test system: U251 CNS
[37] = test system: MALME-3M melanoma
[38] = test system: SK-MEL-2 melanoma
[39] = test system: OVCAR-3 ovarian
[40] = test system: SW-620 colon
[41] = test system: ACHN renal
[42] = test system: SK-MEL-28 melanoma
[43] = test system: HCT-116 colon
[44] = test system: HOP-62 NSCLC
[45] = test system: 786-0 renal
[46] = test system: SNB-19 CNS
[47] = test system: UO-31 renal
[48] = test system: SF-268 CNS
[49] = test system: MDA-MB-468 breast
[50] = test system: PC-3 prostate
[51] = test system: K-562 leukemia
[52] = test system: NCI/ADR-RES ovarian
[53] = test system: SK-MEL-5 melanoma
[54] = test system: NCI-H23 lung
[55] = test system: SK-OV-3 ovarian
[56] = test system: NCI-H226 lung

Structure (SMILES): COc1cc(/C=C/C(=O)c2ccc(S(=O)(=O)NCCNc3nc(Nc4ccc(F)cc4)nc(N(C)C)n3)cc2)cc(OC)c1OC
- GI50 [1]: 2.64 µM
- TGI [1]: 9.4 µM
- GI50 [2]: 1.45 µM
- TGI [2]: 3.12 µM
- GI50 [3]: 3.28 µM
- TGI [3]: 11.5 µM
- GI50 [4]: 5.2 µM
- TGI [4]: 35.6 µM
- GI50 [5]: 11.1 µM
- TGI [5]: 34.7 µM
- GI50 [6]: 1.71 µM
- TGI [6]: 3.1 µM
- GI50 [7]: 12.2 µM
- TGI [7]: 30.9 µM
- GI50 [8]: 1.96 µM
- TGI [8]: 4.28 µM
- GI50 [9]: 1.71 µM
- TGI [9]: 3.18 µM
- GI50 [10]: 3.62 µM
- TGI [10]: > 100 µM
- GI50 [11]: 13.1 µM
- TGI [11]: 40.9 µM
- GI50 [12]: 10.9 µM
- TGI [12]: 34.3 µM
- GI50 [13]: 2.5 µM
- TGI [13]: 7.69 µM
- GI50 [14]: 1.8 µM
- TGI [14]: 3.44 µM
- GI50 [15]: 8.02 µM
- TGI [15]: 63.4 µM
- GI50 [16]: 11.5 µM
- TGI [16]: 37.7 µM
- GI50 [17]: 3.48 µM
- TGI [17]: 51.3 µM
- GI50 [18]: 1.62 µM
- TGI [18]: 3 µM
- GI50 [19]: 15.1 µM
- TGI [19]: 31.4 µM
- GI50 [20]: 5.71 µM
- TGI [20]: 21.5 µM
- GI50 [21]: 5.12 µM
- TGI [21]: 17.8 µM
- GI50 [22]: 8.24 µM
- TGI [22]: 46.7 µM
- GI50 [23]: 4.41 µM
- TGI [23]: 21 µM
- GI50 [24]: 4.85 µM
- TGI [24]: 16.3 µM
- GI50 [25]: 1.93 µM
- TGI [25]: 3.53 µM
- GI50 [26]: 2.16 µM
- TGI [26]: 4.73 µM
- GI50 [27]: 4.78 µM
- TGI [27]: 19.2 µM
- GI50 [28]: 2.25 µM
- TGI [28]: 7.52 µM
- GI50 [29]: 16.1 µM
- TGI [29]: 31 µM
- GI50 [30]: 2.42 µM
- TGI [30]: 7.6 µM
- GI50 [31]: 6.45 µM
- TGI [31]: 20.1 µM
- GI50 [32]: 12.9 µM
- TGI [32]: 26.8 µM
- GI50 [33]: 11.3 µM
- TGI [33]: 23.8 µM
- GI50 [34]: 8.28 µM
- TGI [34]: 21.4 µM
- GI50 [35]: 2.8 µM
- TGI [35]: 7.68 µM
- GI50 [36]: 1.81 µM
- TGI [36]: 3.54 µM
- GI50 [37]: 11.9 µM
- TGI [37]: 25.7 µM
- GI50 [38]: 13.5 µM
- TGI [38]: 28.3 µM
- GI50 [39]: 6.18 µM
- TGI [39]: 26.4 µM
- GI50 [40]: 1.95 µM
- TGI [40]: 3.8 µM
- GI50 [41]: 5.13 µM
- TGI [41]: 19.8 µM
- GI50 [42]: 6.13 µM
- TGI [42]: 19.3 µM
- GI50 [43]: 1.77 µM
- TGI [43]: 3.68 µM
- GI50 [44]: 14.1 µM
- TGI [44]: 29 µM
- GI50 [45]: 2.94 µM
- TGI [45]: 12 µM
- GI50 [46]: 11.2 µM
- TGI [46]: 23.4 µM
- GI50 [47]: 4.45 µM
- TGI [47]: 17 µM
- GI50 [48]: 11.7 µM
- TGI [48]: 63.7 µM
- GI50 [49]: 2 µM
- TGI [49]: 4.58 µM
- GI50 [50]: 3.22 µM
- TGI [50]: 30.7 µM
- GI50 [51]: 2.73 µM
- TGI [51]: > 100 µM
- GI50 [52]: 3.38 µM
- TGI [52]: 13.4 µM
- GI50 [53]: 3.39 µM
- TGI [53]: 12.8 µM
- GI50 [54]: 3.03 µM
- TGI [54]: 10.9 µM
- GI50 [55]: 21.8 µM
- TGI [55]: 58.9 µM
- GI50 [56]: 4.47 µM
- TGI [56]: 31.9 µM
